Data on 22 compounds can be found in ChEMBL document CHEMBL1909558, “Discovery, synthesis and SAR analysis of novel selective small molecule S1P4-R agonists based on a (2Z,5Z)-5-((pyrrol-3-yl)methylene)-3-alkyl-2-(alkylimino)thiazolidin-4-one chemotype” (Bioorg Med Chem Lett, 2011).

Each structure is given as a SMILES string. pEC50: −log10 of the molar value. Active and inactive are the calls of the source. The rule behind the calls is not given here.

Experiment [1] addresses T1, Sphingosine 1-phosphate receptor 1 (Homo sapiens, UniProt P21453). Briefly: Agonist activity at S1P1 receptor. Type of experiment: functional.
Experiment [2] has as its target T2, Sphingosine 1-phosphate receptor 5 (Homo sapiens, UniProt Q9H228). The experiment is described as follows: Agonist activity at S1P5 receptor. It is filed as functional.
The target in experiment [3] is Sphingosine 1-phosphate receptor 3 (Homo sapiens) (UniProt Q99500). The experiment is described as follows: Agonist activity at S1P3 receptor at 25 uM. It is filed as functional.
Sequence of Sphingosine 1-phosphate receptor 3 (Homo sapiens) (Q99500 whole entry): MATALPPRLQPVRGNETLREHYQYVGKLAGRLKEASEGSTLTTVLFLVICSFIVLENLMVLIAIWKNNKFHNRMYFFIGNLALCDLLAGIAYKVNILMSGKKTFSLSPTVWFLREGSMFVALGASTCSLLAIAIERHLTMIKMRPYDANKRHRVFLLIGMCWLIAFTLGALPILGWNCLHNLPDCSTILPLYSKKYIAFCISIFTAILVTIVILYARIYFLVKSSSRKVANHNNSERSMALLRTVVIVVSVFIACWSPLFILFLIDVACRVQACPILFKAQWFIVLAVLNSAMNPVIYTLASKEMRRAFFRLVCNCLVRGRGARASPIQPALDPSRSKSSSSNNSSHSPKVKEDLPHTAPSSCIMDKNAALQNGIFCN
The target in experiment [4] is T3, Sphingosine 1-phosphate receptor 4 (Homo sapiens, UniProt O95977).
T3 sequence (O95977 whole entry): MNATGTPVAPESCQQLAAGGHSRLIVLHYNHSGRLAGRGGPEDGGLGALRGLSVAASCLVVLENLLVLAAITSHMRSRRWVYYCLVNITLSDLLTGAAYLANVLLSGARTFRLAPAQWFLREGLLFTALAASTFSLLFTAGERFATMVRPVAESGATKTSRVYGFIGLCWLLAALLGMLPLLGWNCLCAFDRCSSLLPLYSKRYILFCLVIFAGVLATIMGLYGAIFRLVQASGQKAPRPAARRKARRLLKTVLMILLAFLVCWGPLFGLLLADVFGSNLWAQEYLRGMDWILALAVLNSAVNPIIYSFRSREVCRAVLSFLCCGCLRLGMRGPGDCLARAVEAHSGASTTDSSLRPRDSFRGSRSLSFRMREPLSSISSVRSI
Briefly: Agonist activity at S1P4 receptor in human U2OS cells expressing VP16-GAL4 transcriptional factor and beta-arrestin/TEV protease fusion protein assessed as migration of VP16-GAL4 into nucleus by FRET based beta lactamase reporter gene assay. It is filed as functional, cell-based.

For experiment [5], the target named is T4, Sphingosine 1-phosphate receptor 2 (Homo sapiens, UniProt O95136). Briefly: Agonist activity at S1P2 receptor at 25 uM. Type of experiment: functional.
T4 sequence (O95136 whole entry): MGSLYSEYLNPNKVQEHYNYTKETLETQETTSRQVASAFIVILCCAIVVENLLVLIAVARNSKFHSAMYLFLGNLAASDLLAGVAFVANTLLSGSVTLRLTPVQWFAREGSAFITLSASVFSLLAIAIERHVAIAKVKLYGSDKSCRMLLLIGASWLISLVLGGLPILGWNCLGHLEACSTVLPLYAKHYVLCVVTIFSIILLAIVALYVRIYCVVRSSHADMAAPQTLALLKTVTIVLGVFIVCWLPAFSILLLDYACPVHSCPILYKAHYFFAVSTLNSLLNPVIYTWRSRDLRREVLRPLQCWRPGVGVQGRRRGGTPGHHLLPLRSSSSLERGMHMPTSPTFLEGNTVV
Experiment [6] concerns the target T5, Sphingosine 1-phosphate receptor 4 (Homo sapiens) (UniProt O95977).
T5 sequence (whole entry): T3 sequence (O95977 whole entry)
Briefly: Agonist activity at S1P4 receptor relative to control. Type of experiment: functional.

Experiment [7] addresses T4, Sphingosine 1-phosphate receptor 2. The experiment is described as follows: Agonist activity at S1P2 receptor. Type of experiment: functional.
In experiment [8] the target is T1, Sphingosine 1-phosphate receptor 1. Briefly: Agonist activity at S1P1 receptor at 25 uM. Type of experiment: functional.
Experiment [9] has as its target T2, Sphingosine 1-phosphate receptor 5. Briefly: Agonist activity at S1P5 receptor at 25 uM. Type of experiment: functional.
For experiment [10] the target is unchanged. Briefly: Agonist activity at S1P5 receptor at 8.3 uM. It is filed as functional.
The target in experiment [11] is T1, Sphingosine 1-phosphate receptor 1. The experiment is described as follows: Agonist activity at S1P1 receptor at 8.3 uM. It is filed as functional.
The test system of experiment [12] is UOS2. The experiment is described as follows: Selectivity ratio of EC50 for S1P5 receptor to EC50 for S1P4 receptor in human […] cells. Type of experiment: cell-based.
Experiment [13] concerns the target T2, Sphingosine 1-phosphate receptor 5. The experiment is described as follows: Agonist activity at S1P5 receptor relative to control. It is filed as functional.
In experiment [14] the target is T1, Sphingosine 1-phosphate receptor 1. Briefly: Agonist activity at S1P1 receptor relative to control. It is filed as functional.
In experiment [15] the test system is UOS2. Briefly: Selectivity ratio of EC50 for S1P1 receptor to EC50 for S1P4 receptor in human […] cells. It is filed as cell-based.
Experiment [16] has as its target T1, Sphingosine 1-phosphate receptor 1. Briefly: Antagonist activity at S1P1 receptor at 25 uM. Type of experiment: functional.

T1 sequence (P21453 whole entry): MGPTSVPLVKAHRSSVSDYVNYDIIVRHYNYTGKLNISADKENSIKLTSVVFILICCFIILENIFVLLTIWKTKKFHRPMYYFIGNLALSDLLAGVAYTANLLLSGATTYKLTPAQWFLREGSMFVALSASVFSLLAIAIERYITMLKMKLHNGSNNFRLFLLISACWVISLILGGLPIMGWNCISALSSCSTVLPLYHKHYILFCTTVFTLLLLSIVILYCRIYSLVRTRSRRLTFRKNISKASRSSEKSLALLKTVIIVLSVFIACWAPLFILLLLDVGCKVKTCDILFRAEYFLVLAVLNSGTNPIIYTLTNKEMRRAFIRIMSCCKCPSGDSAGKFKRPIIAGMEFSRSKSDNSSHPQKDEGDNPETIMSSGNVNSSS
T2 sequence (Q9H228 whole entry): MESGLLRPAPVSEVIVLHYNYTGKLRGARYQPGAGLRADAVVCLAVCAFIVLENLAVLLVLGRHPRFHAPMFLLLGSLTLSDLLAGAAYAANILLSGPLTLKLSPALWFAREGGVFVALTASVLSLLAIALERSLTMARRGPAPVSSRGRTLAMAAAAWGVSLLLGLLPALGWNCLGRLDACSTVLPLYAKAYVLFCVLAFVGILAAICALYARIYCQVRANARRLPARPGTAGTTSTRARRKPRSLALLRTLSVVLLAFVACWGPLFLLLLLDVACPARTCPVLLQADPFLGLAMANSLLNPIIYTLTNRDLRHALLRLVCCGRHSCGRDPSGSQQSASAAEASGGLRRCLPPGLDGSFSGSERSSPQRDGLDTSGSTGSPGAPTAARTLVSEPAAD

The term pEC50 denotes the negative decadic logarithm of the EC50, by convention in mol/L. On to `CC/N=C1\S/C(=C\c2cc(C)n(-c3ccccc3)c2C)C(=O)N1CC`, for which the pEC50 in experiment [1] is 7.17; in experiment [2], 6.63; in [4], 6.22. For the same compound, the outcome in experiment [3] and in experiment [5] was inactive.

Compound `C/N=C1\S/C(=C\c2cc(C)n(-c3ccc(F)c(C#N)c3)c2C)C(=O)N1C` yielded an Efficacy in [6] of 50%. Moreover, the pEC50 in experiment [4] is 5.49.

Regarding `C/N=C1\S/C(=C\c2cc(C)n(Cc3ccccc3)c2C)C(=O)N1C`, the pEC50 in [1] is 6.14; in experiment [2], 6.84; in experiment [7], 5.44; in experiment [4], 6.58. In addition, the outcome in [3] was inactive.

With `C/N=C1\S/C(=C\c2cc(C)n(Cc3c(F)cccc3F)c2C)C(=O)N1C`, the pEC50 in experiment [1] is 7.47; in experiment [2] it was 7.47; in [4] it was 7.04. Further, the Efficacy in experiment [3] is 70%; in experiment [5] it was 120%.

On to `CC/N=C1\S/C(=C\c2cc(C)n(-c3ccccc3F)c2C)C(=O)N1CC`, for which the outcome in experiment [3], in experiment [5], in [8] and in experiment [9] was inactive. Besides, the pEC50 in experiment [4] was 6.60.

`Cc1cc(/C=C2\S/C(=N\CCO)N(C)C2=O)c(C)n1-c1ccccc1F`: the Efficacy in [10] is 60%; in [11] it was 20%. Also, the result in experiment [3] and in experiment [5] was inactive. The pEC50 in experiment [4] was 6.51.

As to `CC/N=C1\S/C(=C\c2cc(C)n(-c3ncccc3F)c2C)C(=O)N1CC`, the Efficacy in [6] turned out to be 70%. The pEC50 in experiment [4] was 5.27.

For the compound `CC/N=C1\S/C(=C\c2cc(C)n(-c3ccc(F)cc3F)c2C)C(=O)N1CC`, the pEC50 in [1] was 6.09; in experiment [2], 5.21; in [4], 6.98. Moreover, the result in [3] and in experiment [5] was inactive.

The compound `C/N=C1\S/C(=C\c2cc(C)n(-c3cccc(F)c3)c2C)C(=O)N1C` registered an Efficacy in experiment [6] of 60%. In experiment [4], the pEC50 was 5.80.

As for `COCC/N=C1\S/C(=C\c2cc(C)n(-c3ccc(F)cc3F)c2C)C(=O)N1C`, the pEC50 in experiment [2] was 5.68; in [4] it was 7.25. Further, the result in experiment [3], in experiment [5] and in experiment [8] was inactive. In the experiment on UOS2 [12], the Ratio EC50 amounted to 37.

As to `C/N=C1\S/C(=C\c2cc(C)n(-c3ccc(F)cc3)c2C)C(=O)N1C`, the results for the pEC50 in [1], in [2] and in experiment [4] were 5.74, 6.19 and 6.36, respectively. Besides, the Efficacy came to 50% in [13] and 70% in experiment [14]. In addition, the outcome in experiment [3] and in experiment [5] was inactive.

For `C/N=C1\S/C(=C\c2cc(C)n(CCc3ccccc3)c2C)C(=O)N1C`, the Efficacy in [6] was 20%. Further, the pEC50 in experiment [4] is 6.18.

As for `C/N=C1\S/C(=C\c2cc(C)n(Cc3ccc(F)cc3F)c2C)C(=O)N1C`, the figures for the pEC50 in experiment [1], in experiment [2] and in [4] were 6.54, 7.43 and 6.83, respectively. Besides, the outcome in [3] and in experiment [5] was inactive.

In [6], `Cc1cc(/C=C2\S/C(=N\c3ccccn3)NC2=O)c(C)n1-c1ccccc1F` came in with an Efficacy of 70%. The pEC50 in experiment [4] is 5.68.

`C/N=C1\S/C(=C\c2cc(C)n(-c3ccccc3F)c2C)C(=O)N1C`: the pEC50 in experiment [1] is 6.09; in [2] it was 6.14; in experiment [4], 6.69. Also, the Efficacy in [13] amounted to 70%. The result in experiment [3] and in [5] was inactive.

For `C/N=C1\S/C(=C\c2cc(C)n(Cc3ccccc3F)c2C)C(=O)N1C`, the pEC50 in experiment [1] was 6.60; in experiment [2], 7.29; in experiment [4], 7.14. The values for the Efficacy in experiment [3] and in experiment [5] were 25% and 60%, respectively.

The compound `C/N=C1\S/C(=C\c2cc(C)n(-c3ncccc3F)c2C)C(=O)N1C` registered an Efficacy in experiment [6] of 70%. Further, in experiment [4], the pEC50 is 5.51.

With `N[C@H](CNC(=O)c1cc2c(-c3ccccc3Cc3ccccc3)cccc2[nH]1)C(=O)O`, the pEC50 in experiment [1] was less than 5.00; in [2], 5.62; in experiment [4], 8.00.

For `CC/N=C1\S/C(=C\c2cc(C)n(Cc3c(F)cccc3F)c2C)C(=O)N1CC`, the pEC50 in [1] is 7.74; in experiment [2] it was 7.66; in [4], 6.50. Also, the outcome in [3] and in [5] was inactive.

Regarding `C/N=C1\S/C(=C\c2cc(C)n(-c3ccc(F)cc3F)c2C)C(=O)N1C`, the figures for the pEC50 in [1] and in experiment [4] were 5.35 and 6.68, respectively. The outcome in experiment [3], in experiment [5] and in experiment [9] was inactive. The Ratio EC50 with UOS2 [15] worked out at 21.

In the case of `C/N=C1\S/C(=C\c2cc(C)n(-c3ccc(Cl)cc3F)c2C)C(=O)N1C`, the pEC50 is 5.52 in [1], 5.47 in experiment [2] and 6.36 in [4]. Further, the outcome in [3] and in experiment [5] was inactive.

What is called inhibition is the relative decrease from the control value, in per cent. With `COCC/N=C1\S/C(=C\c2cc(C)n(Cc3ccccc3)c2C)C(=O)N1C`, the pEC50 is 6.71 in [2] and 7.17 in [4]. Also, the Efficacy in experiment [13] was found to be 80%. Moreover, the outcome in experiment [3] and in experiment [5] was inactive. In experiment [16], this compound gave an inhibition of 85%.
